Test results published in patent US6465220B1, “Glycosylation using GalNac-T4 transferase” (GlycoZym ApS, priority 1998, dated 2002).
Like-named read-outs stand apart in the source and are kept apart here. One block for each compound: values may come before it. Ends that are not written are not given here.

What was measured:
[1] = biological target: T1, GalNAc-T4 (Homo sapiens, UniProt Q8N4A0); assay: GalNAc-transferase assay with purified recombinant GalNAc-T4; type: biochemical
T1 construct: made in house; host or cells: High Five insect cells (baculovirus, pAcGP67 vector)
Procedure: (§1) In the examples, GalNAc-transferase assays were performed in 50 μl total reaction mixtures containing 25 mM cacodylate (pH 7.5), 10 mM MnCl2, 0.1-0.25% Triton X-100, 150-200 μM UDP-[^14C]-GalNAc (4,000 cpm/nmole) (Amersham) and 0.06-1 mM acceptor peptides. Peptides were either synthesized or obtained from Carlbiotech (Copenhagen), or Neosystems (Strasbourg), and quality was ascertained by amino acid analysis and mass spectrometry. Peptides Muc-1a, Muc-1b, and TAP24, were derived from the tandem repeat of human MUC1, Gendler et al., J. Biol. Chem. 265:15286 (1990), and Muc2, Muc5AC, and Muc7 from the tandem repeats of MUC2, MUC5AC, and MUC7, respectively. Gum et al., J. Biol. Chem. 264:6480 (1989); Porchet et al., Biochem. Soc. Trans. 23:800 (1995); Bobek et al., J. Biol. Chem. 268:20563 (1993). GalNAc4TAP24 was produced by in vitro glycosylation using GalNAc-T2 as described in Wandall et al., J. Biol. Chem. 272:23503 (1997). Products were quantified by scintillation counting after chromatography on Dowex-1, octadecyl silica cartridges (Bakerbond), or HPLC (PC3.2/3 or mRPC C2/C18 SC2.1/10 Pharmacia, Smart System). Products produced by in vitro glycosylation were in most cases also confirmed by mass spectrometry.
In this example, GalNAc-T4 was expressed in Sf9 insect cells. Expression constructs designed to contain amino acid residues 32-578 of the coding sequence of the putative GalNAc-T4 gene shown in SEQ ID NO:1 prepared by genomic PCR of two clones containing GalNAc-T4 (described in Bennett et al. (1998), supra) were cloned into a BamHI site of the expression vector pAcGP67 (Pharmingen), and the expression construct was sequenced. The constructs pAcGP67-GalNAc-T4506Vsol and pAcGP67-GalNAc-T4506 I sol, were designed to yield a putative soluble form of the GalNAc-T4 protein with an N-terminal end positioned immediately C-terminal to a potential transmembrane domain and including the entire sequence expected to contain the catalytic domain. […] Res. Comm. 211:347 (1995).
The activities presented in Table I were obtained with purified GalNAc-T4 and -T2, and are expressed as mU/mg (the concentration of enzyme protein estimated by SDS-PAGE using BSA as standard).

[2] = biological target: T2, GalNAc-T1 (Homo sapiens, UniProt Q10472); details: donor substrate; data from Wandall et al.; cited from earlier work
T2 construct: Control constructs pAcGP67-GalNAc-T1-sol, pAcGP67-GalNAc-T2-sol, pAcGP67-GalNAc-T3-sol, and pAcGP67-O^2-sol were prepared as previously described; made in house; host or cells: insect cells (baculovirus, pAcGP67)
T2 sequence (Q10472 41-559 limits assumed): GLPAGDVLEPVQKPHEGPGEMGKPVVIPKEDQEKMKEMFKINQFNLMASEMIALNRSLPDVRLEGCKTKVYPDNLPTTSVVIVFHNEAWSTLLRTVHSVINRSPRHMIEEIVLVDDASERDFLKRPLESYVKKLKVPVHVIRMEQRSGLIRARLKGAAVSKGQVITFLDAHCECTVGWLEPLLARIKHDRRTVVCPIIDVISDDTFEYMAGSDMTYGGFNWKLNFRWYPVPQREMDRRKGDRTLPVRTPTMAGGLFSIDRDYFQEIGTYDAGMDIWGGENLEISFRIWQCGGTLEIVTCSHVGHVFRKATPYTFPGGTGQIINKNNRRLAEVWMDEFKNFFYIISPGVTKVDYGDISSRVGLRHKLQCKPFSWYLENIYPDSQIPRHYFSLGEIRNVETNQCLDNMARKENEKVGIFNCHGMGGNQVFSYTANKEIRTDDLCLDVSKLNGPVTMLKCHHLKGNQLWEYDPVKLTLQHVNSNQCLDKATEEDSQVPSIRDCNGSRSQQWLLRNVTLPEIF

[3] = biological target: T3, GalNAc-T2 (Homo sapiens, UniProt Q10471); details: donor substrate; data from Wandall et al.; cited from earlier work
T3 construct: Control constructs pAcGP67-GalNAc-T1-sol, pAcGP67-GalNAc-T2-sol, pAcGP67-GalNAc-T3-sol, and pAcGP67-O^2-sol were prepared as previously described; made in house; host or cells: insect cells (baculovirus, pAcGP67)

[4] = biological target: T4, GalNAc-T3 (Homo sapiens, UniProt Q14435); details: donor substrate; data from Wandall et al.; cited from earlier work
T4 construct: Control constructs pAcGP67-GalNAc-T1-sol, pAcGP67-GalNAc-T2-sol, pAcGP67-GalNAc-T3-sol, and pAcGP67-O^2-sol were prepared as previously described; made in house; host or cells: insect cells (baculovirus, pAcGP67)
T4 sequence (Q14435 38-633 limits assumed): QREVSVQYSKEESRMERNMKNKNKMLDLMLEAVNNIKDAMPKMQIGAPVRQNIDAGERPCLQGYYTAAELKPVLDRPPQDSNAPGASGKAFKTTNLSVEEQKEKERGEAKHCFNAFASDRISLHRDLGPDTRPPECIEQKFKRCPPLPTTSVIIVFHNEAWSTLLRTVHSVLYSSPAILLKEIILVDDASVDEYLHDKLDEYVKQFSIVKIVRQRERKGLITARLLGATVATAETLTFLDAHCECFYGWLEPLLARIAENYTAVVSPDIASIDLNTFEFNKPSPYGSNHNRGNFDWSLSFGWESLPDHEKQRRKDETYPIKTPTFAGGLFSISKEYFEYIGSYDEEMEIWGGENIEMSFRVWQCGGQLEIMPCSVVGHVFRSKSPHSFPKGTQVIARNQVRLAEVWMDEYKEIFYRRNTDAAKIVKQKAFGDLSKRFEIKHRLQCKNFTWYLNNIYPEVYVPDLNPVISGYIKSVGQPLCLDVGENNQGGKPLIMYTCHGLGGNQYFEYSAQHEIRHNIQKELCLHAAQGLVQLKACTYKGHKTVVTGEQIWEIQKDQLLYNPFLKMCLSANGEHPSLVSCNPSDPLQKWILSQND

[5] = biological target: T3, GalNAc-T2; assay: GalNAc-transferase assay with purified recombinant GalNAc-T2; type: biochemical
Procedure: as §1, with “The following examples are provided to illustrate certain preferred embodiments of the invention, and should be considered as illustration and not as limitation. In” for “In”
(§2) In this example, GalNAc-T4 was expressed in Sf9 insect cells. Expression constructs designed to contain amino acid residues 32-578 of the coding sequence of the putative GalNAc-T4 gene shown in SEQ ID NO:1 prepared by genomic PCR of two clones containing GalNAc-T4 (described in Bennett et al. (1998), supra) were cloned into a BamHI site of the expression vector pAcGP67 (Pharmingen), and the expression construct was sequenced. The constructs pAcGP67-GalNAc-T4506Vsol and pAcGP67-GalNAc-T4506 I sol, were designed to yield a putative soluble form of the GalNAc-T4 protein with an N-terminal end positioned immediately C-terminal to a potential transmembrane domain and including the entire sequence expected to contain the catalytic domain. Control constructs pAcGP67-GalNAc-T1-sol, pAcGP67-GalNAc-T2-sol, pAcGP67-GalNAc-T3-sol, and pAcGP67-O^2-sol were prepared as previously described in White et al., J. Biol. Chem 270:24156 (1995); Bennett et al., J. Biol. Chem. 271:17006 (1996); and Bennett et al., Biochem. Biophys. Res. Comm. 211:347 (1995).
Activities measured with the mucin derived substrates, Muc7, EA2, and Muc2 (see Table I for structures and SEQ ID NOs:19, 25 and 18, respectively), were only 2-7 fold over background values. Very low activities with a few other substrates were also observed, but for many of the “mucin-like” substrates a relative high background with Sf9 cells infected with irrelevant constructs made assessment difficult. GalNAc-T4 was expressed in High Five cells and purified to near homogeneity, however, very low endogenous activity was detected with some substrates in the same fractions when medium from cells infected with irrelevant expression constructs were used in the same purification strategy. The activities presented in Table I were obtained with purified GalNAc-T4 and -T2, and are expressed as mU/mg (the concentration of enzyme protein estimated by SDS-PAGE using BSA as standard). The highest activities with GalNAc-T4 were found from assays of Sf9 medium with the mucin peptides Muc7, EA2, and Muc2, however, the efficiencies with these substrates were considerably lower than GalNAc-T2.

[6] = biological target: T4, GalNAc-T3; assay: GalNAc-transferase assay with purified recombinant GalNAc-T3; type: biochemical
Procedure: as §1, with “The following examples are provided to illustrate certain preferred embodiments of the invention, and should be considered as illustration and not as limitation. In” for “In”
as §2

[7] = biological target: T2, GalNAc-T1; assay: GalNAc-transferase assay with purified recombinant GalNAc-T1; type: biochemical; details: acceptor substrate
Procedure: as §1, with “The following examples are provided to illustrate certain preferred embodiments of the invention, and should be considered as illustration and not as limitation. In” for “In”
In this example, GalNAc-T4 was expressed in Sf9 insect cells. Expression constructs designed to contain amino acid residues 32-578 of the coding sequence of the putative GalNAc-T4 gene shown in SEQ ID NO:1 prepared by genomic PCR of two clones containing GalNAc-T4 (described in Bennett et al. (1998), supra) were cloned into a BamHI site of the expression vector pAcGP67 (Pharmingen), and the expression construct was sequenced. […]

Compound: CC(=O)N[C@H]1[C@@H](OP(=O)(O)OP(=O)(O)OC[C@H]2O[C@@H](n3ccc(=O)[nH]c3=O)[C@H](O)[C@@H]2O)O[C@H](CO)[C@H](O)[C@@H]1O [UDP-GalNAc, UDP-N-acetylgalactosamine]
Km ([1]; donor substrate, saturating concentration of Muc7 as substrate, read-out: Km GalNAc-T4): 160 µM
Km ([1]; using the Muc7 acceptor substrate, read-out: Km of purified GalNAc-T4 for UDP-GalNAc): 160 µM
Km [2]: 62 µM
Km [3]: 10 µM
Km [4]: 29 µM

Compound: CC(=O)N[C@H]1[C@@H](OP(=O)(O)OP(=O)(O)OC[C@H]2O[C@@H](n3ccc(=O)[nH]c3=O)[C@H](O)[C@@H]2O)O[C@H](CO)[C@@H](O)[C@@H]1O [UDP-GlcNAc]
incorporation with alternative donor substrate ([1]; Muc7 acceptor peptide): No incorporation

GalNAc-T4 activity with acceptor peptide ([1]; 0.25 mM peptide in 50-μl assay): 2 ± 0.4 milliunits/mg
GalNAc-T4 activity with acceptor peptide ([1]; 1 mM peptide in 50-μl assay): 6.7 ± 1 milliunits/mg
GalNAc-T4 activity with substrate (in words) ([1]; purified GalNAc-T4): somewhat poor activities
GalNAc-T2 activity with acceptor peptide ([5]; 0.25 mM peptide in 50-μl assay): 28 ± 5 milliunits/mg
GalNAc-T2 activity with acceptor peptide ([5]; 1 mM peptide in 50-μl assay): 83 ± 2 milliunits/mg
specific activity of GalNAc-T3 ([6]; with Muc1a): 0.5 U/mg
Compound: AHGVTSAPDTR [Muc1a′, peptide derived from the tandem repeat of human MUC1]

Km [7]: > 2000 µM
Km ([5]; acceptor substrate): > 2000 µM
Km ([6]; acceptor substrate): > 2000 µM
Compound: Ac-QATEYEYLDYDFLPETEPPEM [PSGL-1b]
